Assay results as given in US8759519B2, “Mono-hydrochloric salts of an inhibitor of histone deacetylase” (Janssen Pharmaceutica NV, priority 2007, dated 2014).
Structures can show the parent of a compound that is named as a salt. Where two headings read alike, the source gives them in different places.

Key:
Assay type in all cases: physicochemical
[1] = Adsorption/desorption of water (dynamic vapor sorption); details: 25° C., hydrochloride
Experimental: The ADS/DES data were obtained using a SMS dynamic vapor sorption model DVS-1 and the weight change was recorded with tespect to the atmospheric humidity at 25° C. The weight of the samples was about 17 mg of Form I and 24 mg of Form II. The samples were dried for 60 min under dry nitrogen. The equilibrium was lower or equal to 0.01%/min. for minimal 15 min and maximal 60 min. The data interval was 0.05% or 2.0 min.
Relative Humidity (%) measurement points were:
The adsorption and desorption of water at 25° C. at different conditions of relative humidity was investigated on 17 mg Form I.
The weight change as a function of relative humidity was registered.
The adsorption and desorption of water at 25° C. at different conditions of relative humidity was investigated on about 24 mg Form II

[2] = Aqueous solubility in solvents with different pH; details: 20° C., read-out: Solubility (mg/ml solution)
Experimental: Aqueous solubilities of Form I were measured in solvents with different pH. An excess of the solute was equilibrated with the solvent at 20° C. for 24 hours. After removing the undissolved compound, the concentration in solution was determined using UV spectrometry.

[3] = Crystallographic stability after storage in open conditions (TGA, DSC, XRPD, IR); set-up: key to XRD / IR: ~Ref: identical with reference; Cryst.: crystalline; details: for IR / XRD: Table E
Experimental: The stability of the crystal structure of Form I was studied after storage of the compound in open conditions for a period of six weeks at room temperature (RT) under <5%, 56% and 75% relative humidity (RH), 50° C. and 40° C./75% RH.
The samples are analyzed with thermogravimetry (TGA), differential scanning calorimetry (DSC), X-ray powder diffraction (XRPD) and infrared spectroscopy (IR).
The stability of the crystal structure of Form II was studied after storage of the compound in open conditions for a period of six weeks at room temperature (RT) under <5%, 56% and 75% relative humidity (RH), 50° C. and 40° C./75% RH.
The samples were analyzed with thermogravimetry (TGA), differential scanning calorimetry (DSC), X-ray powder diffraction (XRPD) and infrared spectroscopy (IR).

[4] = Chemical stability after storage in open conditions (HPLC, visual inspection); details: for Appearance / HPLC Sum of impurities: hydrochloride
Experimental: Form I was stored in different open conditions for periods of 1, 4 and 8 weeks.
These conditions are 40° C./75% RH, 50° C., RT/<5% RH, RT/56% RH, RT/75% RH and 0.3 da ICH light.
The compounds were analyzed after storage by HPLC and by visual inspection.
Form II was stored in different open conditions for periods of 1, 4 and 8 weeks. These conditions were 40° C./75% RH, 50° C., RT/<5% RH, RT/56% RH, RT/75% RH and 0.3 da ICH light.

[5] = 0 days (reference), hydrochloride
[6] = six weeks open, 40° C./75% RH, hydrochloride
[7] = six weeks open, 50° C., hydrochloride
[8] = six weeks open, RT/56% RH, hydrochloride
[9] = six weeks open, RT/75% RH, hydrochloride
[10] = six weeks open, RT/<5% RH, hydrochloride

## Cn1cc(CNCC2CCN(c3ncc(C(=O)NO)cn3)CC2)c2ccccc21 [Form I, N-hydroxy-2-[4-[[[(1-methyl-1H-indol-3-yl)methyl]amino]methyl]-1-piperidinyl]-5-pyrimidinecarboxamide hydrochloride]
[1]; adsorption/desorption test
  hygroscopic behavior: no hygroscopic behavior
[1]; high relative humidity
  water adsorbed at high relative humidity: up to 0.6%
[1]
  crystallinity during the adsorption/desorption test: remained crystalline
[2]; aqueous buffer, 0.001N HCl (pH 2.9)
  solubility thermodynamic at 24 h: 1.5 mg/mL
[2]; aqueous buffer, 0.01N HCl (pH 2.0)
  solubility thermodynamic at 24 h: 1.4 mg/mL
[2]; aqueous buffer, Buffer pH 2 (citric acid/NaOH/HCl) (pH 2.0)
  solubility thermodynamic at 24 h: 0.95 mg/mL
[2]; aqueous buffer, Buffer pH 4 (citric acid/HCl/NaOH) (pH 3.9)
  solubility thermodynamic at 24 h: 1.2 mg/mL
[2]; aqueous buffer, Buffer pH 6 (citric acid/NaOH) (pH 6.0)
  solubility thermodynamic at 24 h: 1.5 mg/mL
[2]; aqueous buffer, Buffer pH 8 (boric acid/HCl/NaOH) (pH 7.8)
  solubility thermodynamic at 24 h: 1.3 mg/mL
[2]; aqueous buffer, Buffer pH 10 (boric acid/KCl/NaOH) (pH 9.8)
  solubility thermodynamic at 24 h: 1.3 mg/mL
[2]; water (pH 4.5)
  solubility thermodynamic at 24 h: 1.4 mg/mL
[3]; 0 days (reference)
  DSC Exotherm Max (° C.): 216.8 °C
  TGA <200° C.: 0.9%
[3]; [5]
  App (appearance): Beige-gray
  TGA <100° C.: 0.4%
[3]; six weeks open, 40° C./75% RH
  IR: ~Ref
  XRD: ~Ref
  DSC Exotherm Max (° C.): 216.9 °C
  TGA <200° C.: 0.3%
[3]; six weeks open, 50° C.
  IR: ~Ref
  XRD: ~Ref
  DSC Exotherm Max (° C.): 216.9 °C
  TGA <200° C.: 0.3%
[3]; six weeks open, RT/56% RH
  IR: ~Ref
  XRD: ~Ref
  DSC Exotherm Max (° C.): 216.9 °C
  TGA <200° C.: 0.4%
[3]; six weeks open, RT/75% RH
  IR: ~Ref
  XRD: ~Ref
  DSC Exotherm Max (° C.): 217.0 °C
  TGA <200° C.: 0.4%
[3]; six weeks open, RT/<5% RH
  IR: ~Ref
  XRD: ~Ref
  DSC Exotherm Max (° C.): 216.7 °C
  TGA <200° C.: 0.5%
[3]; six weeks open storage under the different conditions, hydrochloride
  crystallographic stability (conclusion): crystallographically stable
[3]; [6]
  App (appearance): Beige-gray
  TGA <100° C.: 1%
[3]; [7]
  App (appearance): Beige-gray
  TGA <100° C.: 0.5%
[3]; [8]
  App (appearance): Beige-gray
  TGA <100° C.: 0.5%
[3]; [9]
  App (appearance): Beige-gray
  TGA <100° C.: 0.9%
[3]; [10]
  App (appearance): Beige-gray
  TGA <100° C.: 0.8%
[4]; 0.3 da ICH light (1 week)
  Appearance: beige-gray
  HPLC Sum of impurities: 4.58%
[4]; 40° C./75% RH, 1 week
  Appearance: beige-gray
  HPLC Sum of impurities: 3.31%
[4]; 40° C./75% RH, 4 weeks
  Appearance: beige-gray
  HPLC Sum of impurities: 3.13%
[4]; 40° C./75% RH, 8 weeks
  Appearance: beige-gray
  HPLC Sum of impurities: 3.59%
[4]; 50° C., 1 week
  Appearance: beige-gray
  HPLC Sum of impurities: 3.19%
[4]; 50° C., 4 weeks
  Appearance: beige-gray
  HPLC Sum of impurities: 3.2%
[4]; 50° C., 8 weeks
  Appearance: beige-gray
  HPLC Sum of impurities: 3.16%
[4]; RT/56% RH, 4 weeks
  Appearance: beige-gray
  HPLC Sum of impurities: 3.27%
[4]; RT/56% RH, 8 weeks
  Appearance: beige-gray
  HPLC Sum of impurities: 3.15%
[4]; RT/75% RH, 4 weeks
  Appearance: beige-gray
  HPLC Sum of impurities: 3.43%
[4]; RT/75% RH, 8 weeks
  Appearance: beige-gray
  HPLC Sum of impurities: 3.39%
[4]; RT/<5% RH, 4 weeks
  Appearance: beige-gray
  HPLC Sum of impurities: 3.42%
[4]; RT/<5% RH, 8 weeks
  Appearance: beige-gray
  HPLC Sum of impurities: 3.16%
[4]; Reference (1 week)
  Appearance: beige-gray
  HPLC Sum of impurities: 3.14%
[4]; storage in 0.3 da ICH light conditions
  sensitivity towards light (sum of impurities): showed a sensitivity towards light
